# In US20100021918A1, “METHOD FOR ASSAYING ACTION OF ANTITUMOR AGENT USING SPLICING DEFECTS AS INDEX” (Eisai R&D Management Co., Ltd., priority 2007, published 2010):
# Test system: human colon carcinoma cell strain WiDr
# Assay: Microarray analysis (2), reviewed conditions, intron expression, Table 3
# Format: cell-based
# Conditions: treated vs control; for Fold Change (change in expression level of intron probe set): WiDr cells
# Method: WiDr cells were first suspended in RPMI1640 medium (containing 10% FBS, penicillin, and streptomycin) and seeded in a 10 cm dish (2×10^6 cells/dish). After an overnight culture in an incubator with 5% carbon dioxide gas at 37° C., the medium was changed with medium containing 14 nM of (8E,12E,14E)-7-((4-cycloheptylpiperazin-1-yl)carbonyl)oxy-3,6,16,21-tetrahydroxy-6,10,12,16,20-pentamethyl-18,19-epoxytricosa-8,12,14-trien-11-olide or containing vehicle alone. After cultured for additional six hours, TRI reagent (SIGMA) were added to the cells and the cells were harvested. RNA was purified in accordance with the protocol of TRI reagent, followed by further purification with RNeasy (QIAGEN). Absorbance at 260 nm was measured to quantify an amount of RNA. This experiment was repeated three times and RNA samples (n=3) were prepared.
# Ribosomal RNA was removed from 1 μg of each total RNA of control cells (n=3) and cells with the treatment (n=3) by using RiboMinus Human/Mouse Transcriptome Isolation Kit (Invitrogen). Single stranded cDNA synthesis, double stranded cDNA synthesis, cRNA synthesis, second single stranded cDNA synthesis, cDNA fragmentation, and cDNA labeling in order were carried out for the total RNA from which ribosomal RNA was removed, by using GeneChip Whole Transcript Sense Target Labeling and Control Reagents (Affymetrix) to make a cDNA probe. The cDNA probe was used for hybridization with Human Exon 1.0 ST Array (Affymetrix). The array was washed and stained, and luminescence intensity was measured by a scanner.
# Analysis conditions were reviewed in the data used in Example 3. Genes containing increased introns upon treatment with (8E,12E,14E)-7-((4-cycloheptylpiperazin-1-yl)carbonyl)oxy-3,6,16,21-tetrahydroxy-6,10,12,16,20-pentamethyl-18,19-epoxytricosa-8,12,14-trien-11-olide were identified.
# In order to consider the analysis conditions, variations in the data from the samples with identical conditions were studied. […] It turned out that, by analyzing under conditions where the expression level was more than 100 and change in the expression level was more than five times, a probe set with increased expression can be extracted.
# Probe sets showing that the normalized change in the level expression of the probe set in the group with the treatment was more than 5 times; the expression level of the probe set and the gene in the group with the treatment were more than 100; and probe set annotation was “extended, full, free”, were picked out. Welch's t-test was conducted with the probe sets extracted for the treated group and the control group to determine a p and q value. A gene containing the probe sets with the q value of less than 5% was determined as a candidate gene with increased expression level of the intron regions (Table 3).
# In Table 3, for each gene evaluated, gene name (Gene Name), abbreviated name (Gene Symbol), accession number (Accession), alias name (Synonym), transcription cluster number in Human Exon 1.0 ST Array (Human Exon 1.0 ST Array Transcript Cluster ID), chromosome number (Chromosome), type of strand (Strand), start region (Start), stop region (Stop), and change in expression level (Fold Change) were respectively shown.
compound,measurement,setting,value
"CCC(O)C(C)C1OC1CC(C)(O)/C=C/C=C(\C)C1OC(=O)CC(O)CCC(C)(O)C(OC(=O)N2CCN(C3CCCCCC3)CC2)/C=C/C1C (stereo not drawn) [E7107, (8E,12E,14E)-7-((4-cycloheptylpiperazin-1-yl)carbonyl)oxy-3,6,16,21-tetrahydroxy-6,10,12,16,20-pentamethyl-18,19-epoxytricosa-8,12,14-trien-11-olide]",Fold Change,"gene AMD1, intron expression",7.90
same,Fold Change,"gene ANLN, intron expression",7.90
same,Fold Change,"gene ANTXR2, intron expression",7.51
same,Fold Change,"gene API5, intron expression",7.77
same,Fold Change,"gene ATAD2, intron expression",7.69
same,Fold Change,"gene ATN1, change in expression level",14.70
same,Fold Change,"gene AZIN1, intron expression",7.51
same,Fold Change,"gene BAT1 // ATP6V1G2, intron expression",7.87
same,Fold Change (change in expression level of intron probe set),"gene BAZ1B, transcript cluster 3056044",5.01
same,Fold Change,"gene BCL7B, intron expression",7.82
same,Fold Change,"gene BIRC6, change in expression level",15.96
same,Fold Change,"gene BNIP2, change in expression level",15.96
same,Fold Change (change in expression level of intron probe set),"gene BTF3L4, transcript cluster 2336271",5.01
same,Fold Change,"gene C1orf160, intron expression",7.69
same,Fold Change,"gene C4orf30, intron expression",7.53
same,Fold Change,"gene C10orf119, intron expression",7.55
same,Fold Change,"gene C11orf57, intron expression",7.54
same,Fold Change,"gene C12orf44, intron expression",7.51
same,Fold Change,"gene C15orf42, change in expression level",26.27
same,Fold Change (change in expression level of intron probe set),"gene CDCA5, transcript cluster 3377423",5.02
same,Fold Change,"gene CENTD1, intron expression",7.60
same,Fold Change,"gene CERK, intron expression",7.52
same,Fold Change,"gene CGI-09, change in expression level",16.01
same,Fold Change,"gene CHCHD3, intron expression",7.75
same,Fold Change,"gene CLK3, intron expression",7.91
same,Fold Change,"gene CRSP6, intron expression",7.49
same,Fold Change,"gene CSNK2A1 // CSNK2A1P, intron expression",7.87
same,Fold Change,"gene DDX17, change in expression level",15.42
same,Fold Change,"gene DDX18 // WNT8B, intron expression",7.70
same,Fold Change,"gene DDX23, change in expression level",15.78
same,Fold Change,"gene DEDD, intron expression",7.89
same,Fold Change,"gene DPH1 // OVCA2, intron expression",7.64
same,Fold Change,"gene EEF1A1, intron expression",7.70
same,Fold Change,"gene EEF1B2, intron expression",7.78
same,Fold Change,"gene EGFR, intron expression",7.77
same,Fold Change (change in expression level of intron probe set),"gene EIF3S1, transcript cluster 3591963",5.02
same,Fold Change,"gene EIF4G2, intron expression",7.60
same,Fold Change,"gene FBXL11, intron expression",7.57
same,Fold Change (change in expression level of intron probe set),"gene FBXO28, transcript cluster 2382336",5.02
same,Fold Change,"gene FDFT1, intron expression",7.90
same,Fold Change,"gene FEN1, change in expression level",14.75
same,Fold Change,"gene FOXM1, intron expression",7.52
same,Fold Change,"gene GDI1, intron expression",7.73
same,Fold Change,"gene GTF2H1, intron expression",7.62
same,Fold Change,"gene GTF3C2, intron expression",7.63
same,Fold Change,"gene GTPBP4, intron expression",7.79
same,Fold Change,"gene HIRA, intron expression",7.82
same,Fold Change,"gene HSP90AA1 // HSP90AA2 // HSP90AA6P, intron expression",7.53
same,Fold Change (change in expression level of intron probe set),"gene IDH3B, transcript cluster 3895075",5.01
same,Fold Change,"gene ILF3, intron expression",7.68
same,Fold Change,"gene IRS2, intron expression",7.68
same,Fold Change,"gene ITGB4BP, intron expression",7.55
same,Fold Change,"gene ITGB6, intron expression",7.88
same,Fold Change,"gene JOSD3 // SNORA25 // SNORA32 // SNORA18, intron expression",7.81
same,Fold Change,"gene KCTD10, intron expression",7.48
same,Fold Change,"gene KIAA0174, change in expression level",14.78
same,Fold Change,"gene KIAA1967, intron expression",7.49
same,Fold Change,"gene KITLG, intron expression",7.58
same,Fold Change,"gene KLHL18, change in expression level",15.00
same,Fold Change,"gene MAP2K3, intron expression",7.70
same,Fold Change,"gene MAP3K11, intron expression",7.77
same,Fold Change,"gene MKL1, intron expression",7.93
same,Fold Change (change in expression level of intron probe set),"gene MLL5, transcript cluster 3017547",5.02
same,Fold Change,"gene MRPL17, intron expression",7.62
same,Fold Change,"gene MTF2, intron expression",7.63
same,Fold Change,"gene MYST2, intron expression",7.60
same,Fold Change,"gene NDUFA5, intron expression",7.48
same,Fold Change,"gene NONO, intron expression",7.64
same,Fold Change,"gene NOP5/NOP58, intron expression",7.73
same,Fold Change,"gene PAK1IP1 // C20orf7, change in expression level",15.04
same,Fold Change,"gene PELI1, change in expression level",27.36
same,Fold Change,"gene PEX5, intron expression",7.53
same,Fold Change,"gene PHF12, intron expression",7.73
same,Fold Change (change in expression level of intron probe set),"gene PIK4CB // RFX5, transcript cluster 2434925",5.03
same,Fold Change (change in expression level of intron probe set),"gene POLR3O, transcript cluster 2432647",5.01
same,Fold Change,"gene POMZP3, intron expression",7.56
same,Fold Change,"gene PPP6C, intron expression",7.91
same,Fold Change,"gene PPRC1, intron expression",7.86
same,Fold Change,"gene PRPF40A, intron expression",7.89
same,Fold Change,"gene RBM5, intron expression",7.69
same,Fold Change,"gene RPS6KB1, intron expression",7.73
same,Fold Change,"gene SAFB2, intron expression",7.64
same,Fold Change,"gene SAPS3, change in expression level",15.25
same,Fold Change,"gene SDCCAG3 // SNAPC4, intron expression",7.49
same,Fold Change (change in expression level of intron probe set),"gene SHB // CKAP2 // MCART1, transcript cluster 3205659",5.00
same,Fold Change,"gene SIN3A, intron expression",7.60
same,Fold Change,"gene SMAD5, intron expression",7.77
same,Fold Change,"gene SNIP1, intron expression",7.72
same,Fold Change,"gene SNRP70, intron expression",7.52
same,Fold Change,"gene SPOP, intron expression",7.71
same,Fold Change,"gene SPRED2, change in expression level",15.03
same,Fold Change (change in expression level of intron probe set),"gene SPTLC2, transcript cluster 3573152",5.02
same,Fold Change,"gene STARD7, intron expression",7.65
same,Fold Change,"gene STIP1, intron expression",7.71
same,Fold Change,"gene SUPV3L1, change in expression level",14.99
same,Fold Change,"gene TBC1D10B, intron expression",7.74
same,Fold Change,"gene TCP1, intron expression",7.92
same,Fold Change,"gene THRAP1, intron expression",7.84
same,Fold Change,"gene TMEM2, intron expression",7.52
same,Fold Change,"gene TOP1, intron expression",7.93
same,Fold Change,"gene TXNDC9 // LYG2, intron expression",7.69
same,Fold Change,"gene UBE2J1, intron expression",7.66
same,Fold Change,"gene USP36, intron expression",7.92
same,Fold Change,"gene VAPA, intron expression",7.56
same,Fold Change,"gene WAC, intron expression",7.92
same,Fold Change,"gene WDR3, intron expression",7.63
same,Fold Change,"gene YIPF3 // C6orf154, intron expression",7.61
same,Fold Change,"gene YME1L1, intron expression",7.84
same,Fold Change,"gene YTHDF1, intron expression",7.83
same,Fold Change,"gene ZNF148, intron expression",7.69
same,Fold Change,"gene ZNF473, intron expression",7.87
